From patent publication US20240041042A1, “1-(PYRIDYL)-5-AZINYLPYRAZOLE DERIVATIVES, AND THEIR USE FOR CONTROL OF UNDESIRED PLANT GROWTH” (Bayer Aktiengesellschaft, priority 2020, published 2024)
Where two headings read alike, the source gives them in different places.

Tests used:
Format in all cases: in vivo
[1] = system: Avena fatua (AVEFA); assay: Pre-emergence herbicidal action against AVEFA; settings: 320 g/ha, visual scoring after about 3 weeks vs untreated controls
Method in brief: (§1)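 Greenhouse pot trial: seeds sown, soil-covered, sprayed before emergence with compound in water (0.5% additive; 600 l/ha; ≤320 g/ha). Scoring visual, ~3 weeks, 0–100% scale vs untreated.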

[2] = system: Verconica persica (VERPE); assay: Pre-emergence herbicidal action against VERPE
Method in brief: as §1

[3] = system: Alopecurus myosuroides (ALOMY); assay: Post-emergence herbicidal action against ALOMY; settings: visual rating about 3 weeks after treatment vs untreated controls (100% = plants have died, 0% = like control plants)
Method in brief: (§2)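 Greenhouse plants sprayed at the one-leaf stage, 2–3 weeks after sowing, with WP or EC formulations plus 0.5% additive at 600 l/ha water. Activity rated visually after about 3 weeks versus untreated controls (100% = dead, 0% = like control), at 320 g/ha or lower.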

[4] = system: Echinochloa crus-galli (ECHCG); assay: Pre-emergence herbicidal action against ECHCG
Method in brief: as §1

[5] = system: Echinochloa crus-galli (ECHCG); assay: Post-emergence herbicidal action against ECHCG
Method in brief: as §2

[6] = system: Viola tricolor (VIOTR); assay: Post-emergence herbicidal action against VIOTR
Method in brief: as §2

[7] = system: Avena fatua (AVEFA); assay: Post-emergence herbicidal action against AVEFA; settings: visual rating about 3 weeks after treatment
Method in brief: as §2

[8] = system: Pharbitis purpurea (PHBPU); assay: Pre-emergence herbicidal action against PHBPU
Method in brief: as §1

[9] = system: Digitaria sanguinalis (DIGSA); assay: Post-emergence herbicidal action against DIGSA; settings: visual rating about 3 weeks after treatment
Method in brief: as §2

[10] = system: Lolium rigidum (LOLRI); assay: Post-emergence herbicidal action against LOLRI
Method in brief: as §2

[11] = system: Pharbitis purpurea (PHBPU); assay: Post-emergence herbicidal action against PHBPU
Method in brief: as §2

[12] = system: Matricaria inodora (MATIN); assay: Pre-emergence herbicidal action against MATIN
Method in brief: as §1

[13] = system: Amaranthus retroflexus (AMARE); assay: Post-emergence herbicidal action against AMARE
Method in brief: as §2

[14] = system: Setaria viridis (SETVI); assay: Post-emergence herbicidal action against SETVI
Method in brief: as §2

[15] = system: Amaranthus retroflexus (AMARE); assay: Pre-emergence herbicidal action against AMARE; settings: visual scoring after about 3 weeks vs untreated controls
Method in brief: as §1

[16] = system: Lolium rigidum (LOLRI); assay: Pre-emergence herbicidal action against LOLRI
Method in brief: as §1

[17] = system: Viola tricolor (VIOTR); assay: Pre-emergence herbicidal action against VIOTR
Method in brief: as §1

[18] = system: Matricaria inodora (MATIN); assay: Post-emergence herbicidal action against MATIN
Method in brief: as §2

[19] = system: Alopecurus myosuroides (ALOMY); assay: Pre-emergence herbicidal action against ALOMY; settings: scored visually after about 3 weeks, 100% = plants have died
Method in brief: as §1

[20] = system: Polygonum convolvulus (POLCO); assay: Post-emergence herbicidal action against POLCO; settings: dosage 320 g/ha
Method in brief: as §2

[21] = system: Abutilon theophrasti (ABUTH); assay: Post-emergence herbicidal action against ABUTH; settings: visual rating about 3 weeks after treatment vs untreated controls (100% = plants have died, 0% = like control plants)
Method in brief: as §2

[22] = system: Zea mays (ZEAMX); settings: for Post-emergence action against ZEAMX in %: crop plant compatibility, 80 g/ha, effect vs untreated controls
Method in brief: (§3)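 One-leaf-stage crops (2–3 wk post-sowing, sandy loam, greenhouse) sprayed on green parts; 0.5% additive, 600 l/ha water. Rated by eye ~3 wk later, % vs untreated; suffixes a/b/c mark different dosages.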

[23] = system: Oryza sativa (ORYSA); settings: crop plant compatibility
Method in brief: as §3

[24] = system: Digitaria sanguinalis (DIGSA); assay: Pre-emergence herbicidal action against DIGSA
Method in brief: as §1

[25] = system: Verconica persica (VERPE); assay: Post-emergence herbicidal action against VERPE
Method in brief: as §2

[26] = system: Setaria viridis (SETVI); assay: Pre-emergence herbicidal action against SETVI
Method in brief: as §1

[27] = system: Zea mays (ZEAMX); settings: pre-emergence, 80 g/ha, crop plant compatibility, in comparison to untreated controls
Method in brief: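 Scoring: visual, % of untreated control, about 3 weeks after a pre-emergence application to the soil surface. Application used WP or EC formulations diluted in water with 0.5% additive at 600 l/ha; dosage levels are marked by suffixes a, b and c.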

[28] = system: Polygonum convolvulus (POLCO); assay: Pre-emergence herbicidal action against POLCO
Method in brief: as §1

[29] = 320 g/ha, visual rating about 3 weeks after treatment
[30] = 80 g/ha, effect in comparison to untreated controls
[31] = 80 g/ha, visual scoring after about 3 weeks vs untreated controls
[32] = 80 g/ha, visual rating about 3 weeks after treatment vs untreated controls (100% = plants have died, 0% = like control plants)
[33] = 20 g/ha, effect vs untreated controls

Row | Structure (SMILES) | Pre-emergence action against AVEFA in % [1] [%] | Pre-emergence action against VERPE in % ([2]; dosage 320 g/ha) [%] | Post-emergence action against ALOMY in % ([3]; 80 g/ha) [%] | Pre-emergence action against ECHCG in % ([4]; dosage 320 g/ha) [%] | Post-emergence action against ECHCG in % ([5]; dosage 80 g/ha) [%] | Post-emergence action against VIOTR in % ([6]; 320 g/ha) [%] | Pre-emergence action against PHBPU in % ([8]; dosage 320 g/ha) [%] | Post-emergence action against PHBPU in % ([11]; dosage 80 g/ha) [%] | Post-emergence action against PHBPU in % ([11]; dosage 320 g/ha) [%] | Pre-emergence action against MATIN in % ([12]; dosage 320 g/ha) [%] | Post-emergence action against SETVI in % ([14]; dosage 80 g/ha) [%] | Pre-emergence action against AMARE in % ([15]; 320 g/ha) [%] | Pre-emergence action against LOLRI in % ([16]; dosage 320 g/ha) [%] | Pre-emergence action against VIOTR in % ([17]; 320 g/ha, Viola tricolor) [%] | Pre-emergence action against VIOTR in % ([17]; dosage 80 g/ha) [%] | Pre-emergence action against ALOMY ([19]; 320 g/ha) [%] | Post-emergence action against ORYSA in % [23, 30] [%] | Pre-emergence action against DIGSA in % [24, 31] [%] | Pre-emergence action against DIGSA in % ([24]; dosage 320 g/ha) [%] | Pre-emergence action against SETVI in % ([26]; dosage 320 g/ha) [%] | other results
1 | CCOC(=O)COc1nn(-c2nc(F)ccc2F)c(-c2ccc(F)nc2)c1C1CC1 [Example I-348] | 90 | 90 | 80 | 90 | 90 | 80 | 90 | 80 | 80 | 90 | 80 | 90 | 100 | 90 | 80 | 80 | 0 | 90 | 100 | 100 | Post-emergence action against ALOMY in % ([3]; 320 g/ha): 90%; Post-emergence action against ECHCG in % ([5]; dosage 320 g/ha): 90%; Post-emergence action against VIOTR in % ([6]; 80 g/ha): 80%; Post-emergence action against AVEFA in % ([7]; 80 g/ha): 80%; Post-emergence action against AVEFA in % ([7]; 320 g/ha): 80%; Post-emergence action against DIGSA in % ([9]; 80 g/ha): 80%; Post-emergence action against DIGSA in % ([9]; 320 g/ha): 90%; Post-emergence action against LOLRI in % ([10]; dosage 80 g/ha): 80%; Post-emergence action against LOLRI in % ([10]; dosage 320 g/ha): 80%; Post-emergence action against AMARE in % [13, 29]: 80%; Post-emergence action against SETVI in % ([14]; dosage 320 g/ha): 90%; Pre-emergence action against LOLRI in % ([16]; dosage 80 g/ha): 90%; Post-emergence action against MATIN in % ([18]; dosage 320 g/ha): 80%; Post-emergence action against POLCO in % [20]: 80%; Post-emergence action against ABUTH in % ([21]; 320 g/ha): 80%; Post-emergence action against ZEAMX in % [22]: 20%; Post-emergence action against VERPE in % ([25]; 320 g/ha, VERPE): 80%; Post-emergence action against VERPE in % ([25]; dosage 80 g/ha): 80%; Pre-emergence action against SETVI in % ([26]; dosage 80 g/ha): 80%
2 | O=C(O)COc1nn(-c2nc(F)ccc2F)c(-c2cncc(F)c2)c1Cl [Example I-231] | 90 | 80 | – | 90 | 80 | 80 | 90 | – | 80 | 90 | – | 90 | 80 | 100 | 100 | 90 | 10 | 90 | 100 | 90 | Pre-emergence action against VERPE in % ([2]; dosage 80 g/ha): 80%; Pre-emergence action against ECHCG in % ([4]; dosage 80 g/ha): 90%; Post-emergence action against ECHCG in % ([5]; dosage 320 g/ha): 90%; Pre-emergence action against PHBPU in % ([8]; dosage 80 g/ha): 90%; Post-emergence action against DIGSA in % ([9]; 320 g/ha): 90%; Pre-emergence action against MATIN in % ([12]; dosage 80 g/ha): 90%; Post-emergence action against SETVI in % ([14]; dosage 320 g/ha): 80%; Post-emergence action against MATIN in % ([18]; dosage 80 g/ha): 80%; Post-emergence action against MATIN in % ([18]; dosage 320 g/ha): 80%; Post-emergence action against VERPE in % ([25]; 320 g/ha, VERPE): 80%; Pre-emergence action against SETVI in % ([26]; dosage 80 g/ha): 90%
3 | O=C(O)COc1nn(-c2ccccn2)c(-c2ccc(Cl)nc2)c1Br [Example I-235] | – | 80 | – | – | – | 80 | – | 80 | 80 | – | – | 90 | – | – | – | – | 0 | – | 90 | – | Pre-emergence action against ZEAMX in % [27]: 0%; Post-emergence action against VIOTR in % ([6]; 80 g/ha): 80%; Post-emergence action against AMARE in % [13, 32]: 80%; Post-emergence action against AMARE in % [13, 29]: 80%; Pre-emergence action against AMARE in % ([15]; 80 g/ha): 80%; Post-emergence action against POLCO in % [20]: 80%; Post-emergence action against ZEAMX in % [22]: 20%; Post-emergence action against ORYSA in % ([23]; 320 g/ha, effect in comparison to untreated controls): 0%; Post-emergence action against VERPE in % ([25]; 320 g/ha, VERPE): 80%
4 | O=C(O)CNC(=O)COc1nn(-c2ccccn2)c(-c2ccc(F)nc2)c1Cl [Example I-118] | 90 | 90 | 100 | 100 | 80 | – | 90 | 80 | – | 90 | 80 | 100 | 100 | 100 | – | 100 | 0 | 100 | 100 | 100 | Post-emergence action against DIGSA in % ([9]; 80 g/ha): 80%; Post-emergence action against AMARE in % [13, 32]: 90%; Pre-emergence action against AMARE in % ([15]; 80 g/ha): 90%; Pre-emergence action against LOLRI in % ([16]; dosage 80 g/ha): 90%; Post-emergence action against MATIN in % ([18]; dosage 80 g/ha): 80%; Pre-emergence action against ALOMY ([19]; 80 g/ha): 90%; Post-emergence action against ABUTH in % ([21]; 80 g/ha): 80%; Post-emergence action against ORYSA in % [23, 33]: 0%; Pre-emergence action against POLCO in % ([28]; dosage 80 g/ha): 80%; Pre-emergence action against POLCO in % ([28]; dosage 320 g/ha): 90%; Post-emergence action against VERPE in % ([25]; dosage 80 g/ha): 90%; Pre-emergence action against SETVI in % ([26]; dosage 80 g/ha): 90%
5 | CCOC(=O)CN(C)S(=O)(=O)NC(=O)COc1nn(-c2ncccc2F)c(-c2ccc(F)nc2)c1Br [Example I-54] | – | 100 | 90 | 100 | – | – | – | – | – | 100 | 80 | 100 | – | 100 | 100 | 100 | 0 | 100 | 100 | 100 | Pre-emergence action against ZEAMX in % [27]: 0%; Post-emergence action against AMARE in % [13, 32]: 80%; Post-emergence action against ABUTH in % ([21]; 80 g/ha): 80%; Post-emergence action against ZEAMX in % (crop plant compatibility) ([22]; 20 g/ha, ZEAMX, effect in comparison to untreated controls): 0%; Post-emergence action against ORYSA in % [23, 33]: 0%; Pre-emergence action against POLCO in % ([28]; dosage 320 g/ha): 90%
